Where “and” joins values, the source holds several entries; their conditions need not be identical. Equal entries are not always repeated.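 Protocol summary: plate cells (96-well), add compound at 5 concentrations, incubate 48 h, interpolate endpoints linearly. GI50 is the concentration that inhibits growth by half. TGI: total growth inhibition.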
What was measured:
Experiment in all cases: NCI tumour cell line growth inhibition, 48 h
[1] = test system: HOP-62 NSCLC
[2] = test system: SF-295 CNS
[3] = test system: TK-10 renal
[4] = test system: SNB-75 CNS
[5] = test system: SK-MEL-2 melanoma
[6] = test system: NCI-H226 lung
[7] = test system: HT29 colon
[8] = test system: SW-620 colon
[9] = test system: HL-60(TB) leukemia
[10] = test system: MDA-MB-435
[11] = test system: MOLT-4 leukemia
[12] = test system: MDA-MB-231 breast
[13] = test system: OVCAR-4 ovarian
[14] = test system: PC-3 prostate
[15] = test system: A549 NSCLC
[16] = test system: NCI-H23 lung
[17] = test system: RXF 393 renal
[18] = test system: SR leukemia
[19] = test system: M14 melanoma
[20] = test system: HCT-15 colon
[21] = test system: COLO 205 colon
[22] = test system: SK-MEL-5 melanoma
[23] = test system: UACC-62 melanoma
[24] = test system: SN12C renal
[25] = test system: NCI-H460 lung
[26] = test system: NCI/ADR-RES ovarian
[27] = test system: OVCAR-3 ovarian
[28] = test system: CAKI-1 renal
[29] = test system: UO-31 renal
[30] = test system: EKVX NSCLC
[31] = test system: 786-0 renal
[32] = test system: SK-MEL-28 melanoma
[33] = test system: MDA-N
[34] = test system: OVCAR-8 ovarian
[35] = test system: CCRF-CEM leukemia
[36] = test system: U251 CNS
[37] = test system: NCI-H522 lung
[38] = test system: K-562 leukemia
[39] = test system: ACHN renal
[40] = test system: HCT-116 colon
[41] = test system: SNB-19 CNS
[42] = test system: HCC-2998 colon
[43] = test system: HOP-92 NSCLC
[44] = test system: SF-268 CNS
[45] = test system: MCF7 breast
[46] = test system: RPMI-8226 leukemia
[47] = test system: A498 renal
[48] = test system: DU-145 prostate
[49] = test system: SF-539 CNS
[50] = test system: UACC-257 melanoma
[51] = test system: BT-549 breast
[52] = test system: LOX IMVI melanoma
[53] = test system: OVCAR-5 ovarian
[54] = test system: HS 578T breast
[55] = test system: MALME-3M melanoma
[56] = test system: IGROV1 ovarian
[57] = test system: SK-OV-3 ovarian
[58] = test system: KM12 colon
[59] = test system: T-47D breast

`O=C1c2ccccc2-c2n[nH]c3cccc1c23` was tested, and the GI50 [1] was 32.1 µM, the TGI [1] was over 100 µM and the TGI [2] was 86.3 µM and > 100 µM. The GI50 [3] was 7.44 µM, the TGI [3] was 52 µM and 76.2 µM and the TGI [4] was 97.6 µM and > 100 µM. It also gave a GI50 [5] of 22.5 µM, a TGI [5] of over 100 µM and a GI50 [6] of 10.3 µM. The TGI [6] was > 100 µM and 78.4 µM, the GI50 [7] was 12.9 µM and the TGI [7] was over 100 µM. It also gave a TGI [8] of over 100 µM, a GI50 [9] of 9.8 µM and a TGI [9] of over 100 µM. For the same compound, the GI50 [10] was 15.8 µM, the TGI [10] was over 100 µM and the GI50 [11] was 7.85 µM. It also gave a TGI [11] of over 100 µM, a GI50 [12] of 35.8 µM and a TGI [12] of over 100 µM. For the same compound, the GI50 [13] was 20.2 µM, the TGI [13] was over 100 µM and the GI50 [14] was 17.8 µM. The TGI [14] was over 100 µM, the TGI [15] was over 100 µM and the TGI [16] was 58.1 µM and > 100 µM. The GI50 [17] was 5.89 µM, the TGI [17] was > 100 µM and 56.9 µM and the GI50 [18] was 9.01 µM. The TGI [18] was over 100 µM, the GI50 [19] was 5.03 µM and the TGI [19] was over 100 µM. For the same compound, the GI50 [20] was 6.66 µM, the TGI [20] was over 100 µM and the GI50 [21] was 23.9 µM. The TGI [21] was over 100 µM, the GI50 [22] was 25.6 µM and the TGI [22] was 37.5 µM and > 94.6 µM. The GI50 [23] was 19.7 µM, the TGI [23] was 86.6 µM and > 100 µM and the GI50 [24] was 20.8 µM. The TGI [24] was over 100 µM, the GI50 [25] was 8.6 µM and the TGI [25] was over 100 µM. For the same compound, the GI50 [26] was 30.5 µM, the TGI [26] was 59.2 µM and > 100 µM and the GI50 [27] was 23.8 µM. The TGI [27] was 92.1 µM and > 100 µM, the GI50 [28] was 2.98 µM and the TGI [28] was 18.2 µM and 22.6 µM. The GI50 [29] was 4.02 µM, the TGI [29] was > 100 µM and 55.9 µM and the GI50 [30] was 7.03 µM. The TGI [30] was > 100 µM and 85.1 µM, the GI50 [31] was 11.9 µM and the TGI [31] was over 100 µM. The GI50 [32] was 49.3 µM, the TGI [32] was over 100 µM and the TGI [33] was over 100 µM. The TGI [34] was over 100 µM, the TGI [35] was over 100 µM and the GI50 [36] was 16.6 µM. The TGI [36] was over 100 µM, the GI50 [37] was 15.7 µM and the TGI [37] was 50.4 µM and > 92.8 µM. For the same compound, the GI50 [38] was 15.6 µM, the TGI [38] was over 100 µM and the TGI [39] was over 100 µM. The GI50 [40] was 6.15 µM, the TGI [40] was over 100 µM and the TGI [41] was over 100 µM. For the same compound, the GI50 [42] was 19.3 µM, the TGI [42] was 54.6 µM and > 100 µM and the GI50 [43] was 23.7 µM. For the same compound, the TGI [43] was over 100 µM, the GI50 [44] was 12 µM and the TGI [44] was over 100 µM. For the same compound, the GI50 [45] was 21.1 µM, the TGI [45] was over 100 µM and the GI50 [46] was 14.1 µM. The TGI [46] was over 100 µM, the GI50 [47] was 4.95 µM and the TGI [47] was 35.4 µM and 52.4 µM. The GI50 [48] was 13 µM, the TGI [48] was over 100 µM and the GI50 [49] was 25.1 µM. For the same compound, the TGI [49] was over 100 µM, the TGI [50] was over 100 µM and the GI50 [51] was 19.3 µM. The TGI [51] was over 100 µM, the GI50 [52] was 6.04 µM and the TGI [52] was > 100 µM and 34.2 µM. For the same compound, the TGI [53] was 85.4 µM and > 100 µM, the GI50 [54] was 21 µM and the TGI [54] was over 100 µM. For the same compound, the GI50 [55] was 24.1 µM, the TGI [55] was 58.9 µM and > 86.8 µM and the GI50 [56] was 9.32 µM. For the same compound, the TGI [56] was > 100 µM and 99.1 µM, the GI50 [57] was 7.39 µM and the TGI [57] was over 100 µM. For the same compound, the GI50 [58] was 3.1 µM, the TGI [58] was 72 µM and > 100 µM and the GI50 [59] was 45.1 µM. It also gave a TGI [59] of over 100 µM.

With `S=C=NCc1ccccc1` the TGI [1] was 11.7 µM, the TGI [2] was 19.4 µM and the TGI [3] was 12.2 µM. For the same compound, the TGI [4] was 17.1 µM, the TGI [5] was over 59 µM and the TGI [6] was 15 µM. For the same compound, the TGI [7] was over 31.3 µM, the TGI [8] was over 37.3 µM and the TGI [9] was 3.95 µM. It also gave a TGI [10] of 8.33 µM, a TGI [11] of 4.37 µM and a TGI [12] of 5.14 µM. It also gave a TGI [13] of 13.8 µM, a TGI [14] of 19.8 µM and a TGI [15] of 17.9 µM. It also gave a TGI [16] of 15.2 µM, a TGI [17] of 3.18 µM and a TGI [18] of 12.1 µM. For the same compound, the TGI [19] was 5.81 µM, the TGI [20] was 11.1 µM and the TGI [21] was 4.78 µM. The TGI [22] was 7.76 µM, the TGI [23] was 14.1 µM and the TGI [24] was over 36.8 µM. The TGI [25] was 24.5 µM, the TGI [26] was over 32 µM and the TGI [27] was 11.3 µM. The TGI [28] was 4.26 µM, the TGI [29] was 6.74 µM and the TGI [30] was 28.4 µM. For the same compound, the TGI [31] was 1.65 µM, the TGI [32] was 10.2 µM and the TGI [33] was 12.4 µM. It also gave a TGI [34] of 9.31 µM, a TGI [35] of 2.48 µM and a TGI [36] of 12.2 µM. For the same compound, the TGI [37] was 4.45 µM, the TGI [38] was over 19.9 µM and the TGI [39] was 12.7 µM. The TGI [40] was 2.36 µM, the TGI [41] was 13.1 µM and the TGI [42] was 23.1 µM. The TGI [43] was 17 µM, the TGI [44] was 13.5 µM and the TGI [45] was 28.6 µM. The TGI [46] was over 100 µM, the TGI [47] was 14 µM and the TGI [48] was over 41.2 µM. For the same compound, the TGI [49] was 3.79 µM, the TGI [50] was 15.2 µM and the TGI [51] was 5.12 µM. The TGI [52] was over 22.5 µM, the TGI [53] was 29.8 µM and the TGI [54] was 53.6 µM. The TGI [55] was 19.6 µM, the TGI [56] was 8.17 µM and the TGI [57] was 25.1 µM. The TGI [58] was 15.8 µM and the TGI [59] was 33.3 µM.

Work on `Cn1c(Sc2ccc(-c3cccnc3)n2C)ccc1-c1cccnc1` yielded a TGI [1] of 36 µM, a TGI [2] of 38.6 µM and a TGI [3] of 32.4 µM. It also gave a TGI [4] of 46.9 µM, a TGI [5] of 30.1 µM and a TGI [6] of 51.1 µM. It also gave a TGI [7] of 55.1 µM, a TGI [8] of 23.6 µM and a TGI [9] of 5.78 µM. For the same compound, the TGI [10] was 29.1 µM, the TGI [11] was 7.78 µM and the TGI [12] was 37.1 µM. It also gave a TGI [13] of 36.6 µM, a TGI [14] of 31 µM and a TGI [15] of 80.9 µM. The TGI [16] was 34.8 µM, the TGI [17] was 36.3 µM and the TGI [18] was 9.79 µM. For the same compound, the TGI [19] was 37 µM, the TGI [20] was 35.6 µM and the TGI [21] was 38 µM. For the same compound, the TGI [22] was 30.4 µM, the TGI [23] was 29.7 µM and the TGI [24] was 39.6 µM. For the same compound, the TGI [25] was 31.1 µM, the TGI [26] was 71.3 µM and the TGI [27] was 27.3 µM. The TGI [28] was 36.5 µM, the TGI [29] was 33.4 µM and the TGI [30] was over 56.8 µM. It also gave a TGI [31] of 43.5 µM, a TGI [32] of 26.9 µM and a TGI [33] of 25.3 µM. It also gave a TGI [34] of 41.2 µM, a TGI [35] of 4.53 µM and a TGI [36] of 26.9 µM. For the same compound, the TGI [37] was 23.9 µM, the TGI [38] was 13.8 µM and the TGI [39] was 44.9 µM. It also gave a TGI [40] of 25.7 µM, a TGI [41] of 42.3 µM and a TGI [42] of 34.7 µM. The TGI [43] was 28.1 µM, the TGI [44] was 23.7 µM and the TGI [45] was 45.3 µM. For the same compound, the TGI [46] was 23.4 µM, the TGI [47] was 47.6 µM and the TGI [48] was 33.5 µM. For the same compound, the TGI [49] was 41.8 µM, the TGI [50] was 29.1 µM and the TGI [51] was 49.8 µM. The TGI [52] was 15.8 µM, the TGI [53] was 50.9 µM and the TGI [54] was 9.76 µM. It also gave a TGI [55] of 23.3 µM, a TGI [56] of 31.9 µM and a TGI [57] of 60.9 µM. For the same compound, the TGI [58] was 33.6 µM and the TGI [59] was 44.2 µM.

— PubChem BioAssay (NCI)
